In ChEMBL document CHEMBL1201862, “PubChem BioAssay data set” (2004):
Calls of active or inactive are those of the source.

Columns and labels:
[1] = molecular target: T1, Runt-related transcription factor 1/Core-binding factor subunit beta (Homo sapiens, UniProt Q01196+Q13951); assay: inhibitors of RUNX1 Runt–CBFb-SMMHC binding, primary screen, biochemical, FRET, Cerulean-Runt, Venus-CBFb-SMMHC, uHTS (AID 1434); format: protein assay;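 note: partner is the CBFb-SMMHC leukemia fusion protein rather than wild-type CBFb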
T1 sequence (Q01196 whole entry, the tested form may be a part): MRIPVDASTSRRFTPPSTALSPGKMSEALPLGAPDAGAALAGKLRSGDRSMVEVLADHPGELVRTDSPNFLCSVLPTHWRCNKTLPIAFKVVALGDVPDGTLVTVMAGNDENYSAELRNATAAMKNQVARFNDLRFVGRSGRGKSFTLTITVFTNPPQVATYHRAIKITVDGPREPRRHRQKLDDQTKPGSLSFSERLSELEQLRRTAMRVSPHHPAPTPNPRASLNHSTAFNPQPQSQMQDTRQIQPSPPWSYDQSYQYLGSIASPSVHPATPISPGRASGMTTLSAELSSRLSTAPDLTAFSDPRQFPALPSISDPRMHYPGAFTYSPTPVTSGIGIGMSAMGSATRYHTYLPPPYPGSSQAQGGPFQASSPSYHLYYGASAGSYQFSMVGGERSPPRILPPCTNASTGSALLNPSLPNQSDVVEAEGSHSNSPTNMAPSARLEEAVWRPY
T1 sequence (Q13951 whole entry, the tested form may be a part): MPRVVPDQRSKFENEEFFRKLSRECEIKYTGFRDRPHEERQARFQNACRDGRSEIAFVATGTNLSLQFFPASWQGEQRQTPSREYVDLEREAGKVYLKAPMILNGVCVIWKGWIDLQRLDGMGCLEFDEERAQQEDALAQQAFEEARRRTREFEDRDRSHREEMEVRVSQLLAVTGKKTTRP

[2] = molecular target: T1, Runt-related transcription factor 1/Core-binding factor subunit beta; assay: Confirmation of compounds inhibiting the binding between the RUNX1 Runt domain and CBFb-SMMHC via a fluorescence resonance energy transfer (FRET) assay. [Related pubchem assays (depositor defined):AID1434, AID1438, AID1496, AID1550, AID1645]; format: protein assay
[3] = molecular target: T1, Runt-related transcription factor 1/Core-binding factor subunit beta; assay: inhibitors of RUNX1 Runt–CBFb-SMMHC binding, biochemical, TR-FRET (AID 1438); format: protein assay
[4] = molecular target: T2, Tyrosine-protein phosphatase non-receptor type 7 (Homo sapiens, UniProt P35236); assay: SAR analysis of chemical inhibitors of HePTP using a Fluorescent assay - Set 2. [Related pubchem assays (depositor defined):AID1059, AID1077, AID1661, AID2085, AID521]; format: functional
T2 sequence (P35236 whole entry): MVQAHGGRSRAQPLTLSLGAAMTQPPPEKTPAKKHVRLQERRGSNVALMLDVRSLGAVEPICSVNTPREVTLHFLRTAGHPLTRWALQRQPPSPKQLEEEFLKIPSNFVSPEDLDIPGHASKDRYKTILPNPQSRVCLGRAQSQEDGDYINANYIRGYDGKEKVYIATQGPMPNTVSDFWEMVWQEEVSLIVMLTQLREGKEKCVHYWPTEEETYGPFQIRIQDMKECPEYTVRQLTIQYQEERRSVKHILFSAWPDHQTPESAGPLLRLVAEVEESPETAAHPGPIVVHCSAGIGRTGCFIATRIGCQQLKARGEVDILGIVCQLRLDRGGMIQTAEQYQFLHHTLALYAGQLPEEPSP

[5] = molecular target: T3, Mannose-6-phosphate isomerase (Homo sapiens, UniProt P34949); assay: inhibitors of human PMI, primary screen, biochemical, fluorescence intensity, coupled assay (AID 1209)
T3 sequence (P34949 whole entry): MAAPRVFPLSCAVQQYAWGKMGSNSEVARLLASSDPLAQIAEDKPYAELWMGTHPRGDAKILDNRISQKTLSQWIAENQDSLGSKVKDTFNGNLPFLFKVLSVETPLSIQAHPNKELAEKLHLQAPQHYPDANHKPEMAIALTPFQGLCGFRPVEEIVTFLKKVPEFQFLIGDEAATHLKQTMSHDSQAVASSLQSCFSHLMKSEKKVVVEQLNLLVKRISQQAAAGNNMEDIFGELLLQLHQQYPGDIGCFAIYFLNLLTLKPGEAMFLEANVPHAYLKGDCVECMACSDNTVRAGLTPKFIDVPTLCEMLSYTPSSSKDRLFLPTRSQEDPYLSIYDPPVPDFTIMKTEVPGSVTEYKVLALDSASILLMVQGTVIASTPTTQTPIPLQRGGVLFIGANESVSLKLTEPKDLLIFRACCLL

Phosphomannomutase 2 = molecular target: T4, Phosphomannomutase 2 (Homo sapiens, UniProt O15305); assay: Counter screen SAR assay for PMM2 inhibitors via a fluorescence intensity assay. [Related pubchem assays (depositor defined):AID1545, AID1574]
T4 sequence (O15305 whole entry): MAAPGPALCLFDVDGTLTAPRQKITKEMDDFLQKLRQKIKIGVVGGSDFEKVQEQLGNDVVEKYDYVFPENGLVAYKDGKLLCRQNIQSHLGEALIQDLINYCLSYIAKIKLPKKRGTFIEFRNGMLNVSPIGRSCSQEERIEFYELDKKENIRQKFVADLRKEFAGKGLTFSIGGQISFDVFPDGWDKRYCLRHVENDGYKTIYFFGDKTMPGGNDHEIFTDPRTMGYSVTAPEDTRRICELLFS

[6] = molecular target: Dual specificity protein phosphatase 3 (Homo sapiens, UniProt P51452); assay: SAR VHR1 Fluorescent Assay for In Vitro dose response studies Set 2. [Related pubchem assays (depositor defined):AID1654, AID1661, AID1878]; format: functional
Dual specificity protein phosphatase 3, sequence (P51452 whole entry): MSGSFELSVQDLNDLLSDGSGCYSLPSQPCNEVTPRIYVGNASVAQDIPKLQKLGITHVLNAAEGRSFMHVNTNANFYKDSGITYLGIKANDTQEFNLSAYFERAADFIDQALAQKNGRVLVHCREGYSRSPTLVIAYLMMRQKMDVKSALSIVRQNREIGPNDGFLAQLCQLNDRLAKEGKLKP

[7] = molecular target: T3, Mannose-6-phosphate isomerase; assay: PMI enzyme inhibitors, confirmation, biochemical, fluorescence intensity (AID 1535)
[8] = Vero E6 cell cytotoxicity, dose response, cytotoxicity control for non-replicating M. tuberculosis project, secondary assay (AID 492998); format: functional, VeroE6; details: Vero C1008
[9] = microbe, parasite or virus in culture; format: functional; details: Mycobacterium tuberculosis
cells = format: functional
[10] = molecular target: T5, RNA-binding protein pos-1 (Caenorhabditis elegans, UniProt G5EF15); assay: inhibitors of POS-1/mex-3 RNA binding, dose response, biochemical, fluorescence polarization (AID 1964);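 note: purified POS-1 fused to maltose binding protein made in E. coli; potency of compounds blocking POS-1 binding to fluorescent RNA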
T5 sequence (G5EF15 whole entry): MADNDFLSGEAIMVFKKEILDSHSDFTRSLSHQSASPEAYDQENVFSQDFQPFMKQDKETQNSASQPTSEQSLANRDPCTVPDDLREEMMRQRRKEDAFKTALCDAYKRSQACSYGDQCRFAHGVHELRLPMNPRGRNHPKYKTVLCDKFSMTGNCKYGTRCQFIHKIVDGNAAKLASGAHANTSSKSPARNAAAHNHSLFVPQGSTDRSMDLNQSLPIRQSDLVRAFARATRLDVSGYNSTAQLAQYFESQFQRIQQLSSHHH

Ion channel NompC = Ion channel NompC (Danio rerio, UniProt Q7T1G6); assay: Dose response cell-based high-throughput screening assay for agonists of the transient receptor potential channel N1 (TRPN1). [Related pubchem assays (depositor defined):AID1424, AID1448]; format: functional
Ion channel NompC, sequence (Q7T1G6 whole entry): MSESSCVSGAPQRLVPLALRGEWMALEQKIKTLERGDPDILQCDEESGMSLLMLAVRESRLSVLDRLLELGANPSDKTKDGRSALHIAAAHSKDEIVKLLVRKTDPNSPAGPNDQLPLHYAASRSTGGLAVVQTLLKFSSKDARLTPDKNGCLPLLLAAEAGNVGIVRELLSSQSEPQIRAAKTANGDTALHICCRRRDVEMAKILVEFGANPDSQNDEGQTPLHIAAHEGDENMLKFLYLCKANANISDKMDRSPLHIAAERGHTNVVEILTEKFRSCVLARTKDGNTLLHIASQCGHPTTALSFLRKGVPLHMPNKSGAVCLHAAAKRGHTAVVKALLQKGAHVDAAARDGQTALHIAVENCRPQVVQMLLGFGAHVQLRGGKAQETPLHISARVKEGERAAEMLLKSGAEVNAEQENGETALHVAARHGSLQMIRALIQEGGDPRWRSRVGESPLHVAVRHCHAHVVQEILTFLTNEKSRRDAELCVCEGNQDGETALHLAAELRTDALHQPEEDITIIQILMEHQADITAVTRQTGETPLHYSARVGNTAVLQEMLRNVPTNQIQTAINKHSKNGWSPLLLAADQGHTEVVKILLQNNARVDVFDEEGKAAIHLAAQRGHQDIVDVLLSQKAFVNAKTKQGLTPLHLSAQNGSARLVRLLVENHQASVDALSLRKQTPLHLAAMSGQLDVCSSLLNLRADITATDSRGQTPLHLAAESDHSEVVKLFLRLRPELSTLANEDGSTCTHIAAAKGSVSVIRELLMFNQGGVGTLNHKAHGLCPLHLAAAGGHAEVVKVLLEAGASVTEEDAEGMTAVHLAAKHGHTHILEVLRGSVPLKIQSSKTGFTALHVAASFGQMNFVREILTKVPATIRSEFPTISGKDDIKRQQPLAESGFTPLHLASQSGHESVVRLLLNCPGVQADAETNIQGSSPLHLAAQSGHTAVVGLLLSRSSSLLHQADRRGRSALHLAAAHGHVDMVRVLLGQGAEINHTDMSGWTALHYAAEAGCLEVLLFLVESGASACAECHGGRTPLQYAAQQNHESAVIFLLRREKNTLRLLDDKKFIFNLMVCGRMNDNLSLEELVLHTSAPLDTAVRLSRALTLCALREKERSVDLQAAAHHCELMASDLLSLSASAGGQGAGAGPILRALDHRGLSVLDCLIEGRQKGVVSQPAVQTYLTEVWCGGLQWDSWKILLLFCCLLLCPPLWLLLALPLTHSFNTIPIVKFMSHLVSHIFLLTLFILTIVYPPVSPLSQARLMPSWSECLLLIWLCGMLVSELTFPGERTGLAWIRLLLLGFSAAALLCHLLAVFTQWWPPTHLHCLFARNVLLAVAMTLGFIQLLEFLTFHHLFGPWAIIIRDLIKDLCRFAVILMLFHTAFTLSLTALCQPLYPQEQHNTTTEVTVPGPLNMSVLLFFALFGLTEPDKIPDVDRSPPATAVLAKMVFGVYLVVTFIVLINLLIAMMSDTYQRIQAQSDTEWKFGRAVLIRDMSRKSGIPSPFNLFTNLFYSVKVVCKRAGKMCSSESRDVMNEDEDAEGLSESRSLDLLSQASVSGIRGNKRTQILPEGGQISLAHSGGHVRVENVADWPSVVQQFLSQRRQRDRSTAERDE

Mucolipin-3 = Mucolipin-3 (Homo sapiens, UniProt Q8TDD5); assay: Fluorescence counterscreen assay for […] agonists: dose response cell-based high-throughput screening assay to identify agonists of the transient receptor potential channel ML3 (TRPML3). [Related pubchem assays: 1424, 1448 ]; format: functional
Mucolipin-3, sequence (Q8TDD5 whole entry): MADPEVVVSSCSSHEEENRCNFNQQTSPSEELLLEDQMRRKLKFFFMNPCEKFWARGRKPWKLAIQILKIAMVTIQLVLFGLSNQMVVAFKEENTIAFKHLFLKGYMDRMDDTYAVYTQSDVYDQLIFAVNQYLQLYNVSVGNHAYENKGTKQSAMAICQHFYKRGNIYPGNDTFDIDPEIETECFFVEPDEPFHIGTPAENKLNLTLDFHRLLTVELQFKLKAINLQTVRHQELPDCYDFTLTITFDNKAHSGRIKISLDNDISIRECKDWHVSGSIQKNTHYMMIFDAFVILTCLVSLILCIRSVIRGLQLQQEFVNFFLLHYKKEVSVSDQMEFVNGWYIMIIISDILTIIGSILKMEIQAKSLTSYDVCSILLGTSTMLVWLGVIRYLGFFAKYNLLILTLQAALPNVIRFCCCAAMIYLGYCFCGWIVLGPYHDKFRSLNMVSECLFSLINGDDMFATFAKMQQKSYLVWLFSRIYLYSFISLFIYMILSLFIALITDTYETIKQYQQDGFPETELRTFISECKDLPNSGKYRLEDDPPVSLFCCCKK

Beta-lactamase [11] = molecular target: Beta-lactamase (Salmonella choleraesuis (strain SC-B67), UniProt Q5J463)
Beta-lactamase (Salmonella choleraesuis (strain SC-B67), UniProt Q5J463), sequence (Q5J463 whole entry): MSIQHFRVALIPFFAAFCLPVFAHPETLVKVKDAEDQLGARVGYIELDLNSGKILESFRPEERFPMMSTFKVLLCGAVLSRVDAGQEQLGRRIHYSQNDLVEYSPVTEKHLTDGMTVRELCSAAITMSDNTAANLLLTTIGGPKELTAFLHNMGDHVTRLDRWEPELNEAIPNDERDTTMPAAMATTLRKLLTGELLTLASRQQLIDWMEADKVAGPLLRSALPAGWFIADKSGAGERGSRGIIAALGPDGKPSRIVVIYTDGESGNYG

Beta-lactamase [12] = molecular target: Beta-lactamase (Pseudomonas aeruginosa, UniProt Q79MP6);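 note: biochemical dose-response test of metallo-beta-lactamase enzyme inhibition, read out by epi-absorbance; purified recombinant IMP-1 metallo-beta-lactamase with nitrocefin as substrate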
Beta-lactamase (Pseudomonas aeruginosa, UniProt Q79MP6), sequence (Q79MP6 whole entry): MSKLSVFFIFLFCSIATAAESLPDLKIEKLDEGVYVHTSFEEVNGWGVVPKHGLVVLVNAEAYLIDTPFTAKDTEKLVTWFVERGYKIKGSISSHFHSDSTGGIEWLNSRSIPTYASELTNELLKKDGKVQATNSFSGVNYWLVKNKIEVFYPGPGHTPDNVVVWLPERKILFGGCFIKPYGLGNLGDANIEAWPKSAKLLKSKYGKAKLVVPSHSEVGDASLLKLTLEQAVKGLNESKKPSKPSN

[13] = molecular target: T6, Zinc finger protein mex-5 (Caenorhabditis elegans, UniProt Q9XUB2); assay: MEX-5/TCR-2 RNA interaction inhibitors, dose response, biochemical, C. elegans, fluorescence polarization (AID 1960)
T6 sequence (Q9XUB2 whole entry): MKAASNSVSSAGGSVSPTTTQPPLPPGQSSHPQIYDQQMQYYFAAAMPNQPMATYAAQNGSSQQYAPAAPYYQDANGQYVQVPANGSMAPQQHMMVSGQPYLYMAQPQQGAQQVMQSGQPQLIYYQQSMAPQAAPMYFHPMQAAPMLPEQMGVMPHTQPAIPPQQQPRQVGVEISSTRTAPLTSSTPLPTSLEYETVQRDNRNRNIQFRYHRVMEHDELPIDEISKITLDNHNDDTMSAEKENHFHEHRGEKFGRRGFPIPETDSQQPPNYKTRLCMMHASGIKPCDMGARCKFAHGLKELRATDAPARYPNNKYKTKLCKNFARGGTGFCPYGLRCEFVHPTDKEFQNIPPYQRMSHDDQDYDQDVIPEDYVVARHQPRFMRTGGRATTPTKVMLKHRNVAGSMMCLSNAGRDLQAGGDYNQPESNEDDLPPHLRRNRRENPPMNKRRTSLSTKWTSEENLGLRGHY

Cc1nc2ccc(S(=O)(=O)Nc3ccc(-c4nc5cccnc5s4)cc3)cc2s1
IC50 [1]: 1.6 µM (active)
IC50 [2]: 0.713 µM (active)
IC50 [3]: > 100 µM (inactive)

CCOc1ccc(NC(=S)Nc2cc(C)n[nH]2)cc1
IC50 [4]: > 100 µM (inactive)
IC50 [5]: 9.41 µM (active)
IC50 (Phosphomannomutase 2): > 100 µM (inactive)
IC50 [6]: > 100 µM (inactive)
IC50 [7]: > 50 µM (inactive)

Cc1cc(C)n2[nH]c(=O)c(N=Nc3cccc(C(F)(F)F)c3)c2n1
CC50 [8]: 20 µM (active)
CC50 [9]: 26.2 µM (active)
IC50 (cells): 18.7 µM (active)

CCCN1C(=O)c2cccc3c(N4CCCCC4)ccc(c23)C1=O
EC50 [10]: 29.8 µM (active)
EC50 (Ion channel NompC): > 9.97 µM (inactive)
EC50 (Mucolipin-3): > 9.97 µM (not active)
IC50 (Beta-lactamase [11]): > 59.6 µM (inactive)
IC50 (Beta-lactamase [12]): > 59.6 µM (inactive)
EC50 [13]: 51 µM (inconclusive)
